Results from US11081236B2, “Diagnostic and therapeutic methods for the treatment of breast cancer” (GENENTECH, INC., priority 2018, dated 2021).

Tested on: panel of 14 ER+/HER2− breast cancer cell lines
Assay: 8-day in vitro viability assay, GR (Growth Rate) method
Type: cell-based
Settings: 300 nM
Description: The relationship between ER pathway activity and the anti-proliferative effect of the ER antagonist fulvestrant was explored in a panel of 14 ER+/HER2− breast cancer cell lines. RNA-sequencing data was leveraged to determine the E2-induced score, determined by expression of a set of E2-induced genes (as described above), of a series of ER+/HER2− breast cancer cell lines grown under standard culture conditions, in the presence of estrogen. The effect of ER inhibition by 300 nM fulvestrant on cellular proliferation was determined in an 8-day in vitro viability assay using the GR (Growth Rate) method described by Hafner et al. (Nat Methods 13:6, 2016). The E2-induced score was then plotted against the effect of fulvestrant on cellular growth rate.

C[C@]12CC[C@@H]3c4ccc(O)cc4C[C@@H](CCCCCCCCC[S+]([O-])CCCC(F)(F)C(F)(F)F)[C@H]3[C@@H]1CC[C@@H]2O (some centres unmarked) [Fulvestrant, fulvestrant]
impact on growth rate (cell lines exhibiting higher E2-induced scores): considerably greater impact
impact on growth rate (cell lines with E2-induced scores in the lowest 25th percentile (ZR-75-1, MDA-MB-415, MDA-MB-175-VII, KPL-1)): little impact
